Experimental findings from patent US8637679B2, “Process for the isolation of organic compounds useful for the treatment of cancer” (Council of Scientific and Industrial Research, priority 2011, dated 2014) are described below.

One data set concerns ME180. Description: 7-AAD flow cytometric apoptosis, ME180. Format: cell-based, human. As to conditions: ME180, 25 μM mahanine. A general note: In flow cytometry, cells or beads pass a laser one at a time.
Data set [1] deals with Normal cells [heart, liver, muscle and peripheral blood mononuclear cells (PBMC)]. In words: In vitro testing on normal cells. The format is cell-based, rat. As to the method: The cardiomyocytes from 2-day-old neonatal rat were isolated. Briefly, heart was excised and minced in pre warmed (37° C.) Ads buffer (1.2M NaCl, 198 mM HEPES, 54 mM KCl, 8.3 mM MgSO4, 55.4 mM glucose, 95 mM NaH2PO4), digested in typeII Collagenase 0.05% and Pancreatin in 3-successive digestions of 15 minutes each. Supernatant was pooled and cells palleted at 2000 g, 10 minutes. Cells were resuspended and plated in collagen coated T-25 flaks in Medium-199 enriched with 10% Fetal Bovine Serum and 1% antibiotic-antimycotic.
The hepatocytes from 2-day-old neonatal rat were isolated. Briefly, The liver were perfused through the portal vein with a calcium-free solution consisting of 150 mM NaCl, 2.8 mM KCl, 5.5 mM glucose, and 25 mM HEPES (pH 7.6) for 10 min, followed by mincing and digestion in DMEM containing 0.05% collagenase type IV for 30 minutes. The cells were centrifuged (2000 g, 10 minutes) and dispersed in DMEM enriched with 10% fetal Bovine Serum, 1% antibiotic-antimycotic.
The skeletal muscles from 2-day-old neonatal rat were isolated. Briefly, Soleus muscles were dissected minced and digested with 0.2% Type II Collagenase and 0.05% trypsin in Phosphate buffered Saline (PBS) pH 7.4, 0.15 M NaCl. […]
Viability of cancer cell lines after treatment as at the indicated times was determined by MTT assay. […] Absorbance was recorded at 550 nm with 96 well plate readers.

In a further data set the test system is Panc1. Description: MTT cell viability assay, Panc1. As to conditions: Homo sapiens, PANC-1; Panc1, 48 hrs. The format is cell-based, human. As to the method: (§1) Human cervical cancer cell lines (HeLa, ME-180 and SiHa), brain tumor cell lines (U87MG, U373MG, U87MG EGFRvIII, T98G, A172 and LN229), lymphoid leukemia (MOLT-3, MOLT-4, REH and CEMC-7), myloid leukemia (K562), pancreatic cancer (MIAPaCa-2, AsPC-1, Panc-1 and Panc 10.05), lung cancer (A549) and colon cancer (HCT116 and SW480) cell lines from American Type Culture Collection, Manassas, Va., USA were grown in IMDM or RPMI (cell specific) Medium supplemented with 10% fetal bovine serum and 1% antibiotic-antimycotic. Cells were cultured in 37° C. in an atmosphere of 5% CO2.
(§2) Viability of cancer cell lines after treatment as at the indicated times was determined by MTT assay. Briefly, 10,000 cells were plated in triplicate in 96 well plates and incubated for 24 and 48 hours in complete media in presence of varying dose of mahanine (0-50 μM). 100 ug MTT was added in each well. Incubate the plate for 1-4 hours at 37° C. and humidified 5% CO2 atmosphere. Absorbance was recorded at 550 nm with 96 well plate readers.
(In general: Tetrazolium assays rely on reduction of a dye to a coloured formazan, in cell work by metabolically active cells.)

A further data set has as its system U87MGEGFRvIII. In words: MTT cell viability assay, U87MGEGFRvIII. Format: cell-based. To be noted: Homo sapiens, 48 hrs treatment. As to the method: as §1, §2
The subject of data set [2] is SiHa. Description: 7-AAD flow cytometric apoptosis, SiHa. To be noted: 25 μM mahanine. Format: cell-based, human.
Protocol: (§3) U87MG, LN229, HeLa, SiHa and ME180 (1×10^6 cells) cells were cultured in 6-well plates in presence or absence of Mahanine (25 μM) for 24 hrs. Cells were washed in PBS, incubated with 7-Aminoactinomycin D (7-AAD) at 4° C. for 20 min and processed. Data acquisition was done on a FACSCalibur flow cytometer (BD) at excitation wavelength at 488 nm and emission wavelength at 647 nm and analyzed with CellQuestPro software.
A further data set concerns A172. Description: MTT cell viability assay, A172. The format is cell-based, human. To be noted: Homo sapiens, A 172; A172, 48 hrs. As to the method: as §1, §2
The test system of the next data set is K562. Description: MTT cell viability assay, K562. Format: cell-based, human. To be noted: Homo sapiens; K562, 48 hrs. As to the method:
as §1, §2

The test system of data set [3] is MIAPaCa-2. In words: Transmigration assay (EGF-driven). As to conditions: 24 hrs exposure. Format: cell-based, human. As to the method:
MIAPaCa-2 cells were treated with mahanine in dose responsive manner for 24 hrs. Afterward, different growth factors (VEGF, EGF and PDGF) were dissolved in medium at a final concentration of 20 ng/ml and added into the outer well of the 24-transwell plate (PromoCell Heidelberg, Germany) as per manufacturer instruction. Mahanine-pretreated cells (5×10^4 cells/well/500 μl) were added into the insert and incubated at in a humidified incubator (37° C., 5% CO2) for 6 hours and subsequently invaded cells were fixed with chilled methanol and stained with 0.1% crystal violet. Random fields were photographed and quantified under the phase contrast microscope.

For a further data set, the system named is HCT116. Description: MTT cell viability assay, HCT116. The format is cell-based, human. To be noted: Homo sapiens, HCT-116; HCT116, 48 hrs. As to the method:
as §1, §2

Data set [4] has as its system orthotopic pancreatic tumour. In words: Orthotopic pancreatic tumour model. Format: in vivo. To be noted: athymic nude mice.
For data set [5], the system named is MIAPaCa-2. Description: Scratch-wound haptotaxis assay, MIAPaCa-2. Format: cell-based, human. To be noted: MIAPaCa-2, highest treated cells, 6 hrs. As to the method: Highly and moderately invasive pancreatic cancer cell lines, MIAPaCa-2 and BxPC3 (1×10^6/ml/well) were cultured to >90% confluence in 6 well plate. Consequently, cell were rinsed with PBS and starved in low serum media (2 ml containing 0.5%-0.1% serum in RPMI-1640 for MIAPaCa-2 and BxPC-3) for overnight. On the following day, three separate scratch-wounds were made through the confluent cells. Scratched plate was rinsed with PBS and replaced with serum starved media containing successive doses of mahanine or EtOH for 6 hrs. Picture was taken by using phase contrast at 10× accordingly.

Another data set in a line: Storage stability. Format: physicochemical.
For data set [6], the system named is SiHa. In words: MTT cell viability assay, SiHa. As to conditions: Homo sapiens, 48 hr. Format: cell-based. As to the method:
as §1, §2

A further data set has as its system WI-38. In words: MTT cell viability assay, WI-38 normal cells. The format is cell-based, human. As to the method:
as §2

The next data set deals with SW480. In words: MTT cell viability assay, SW480. To be noted: Homo sapiens; SW480, 48 hrs. The format is cell-based, human. As to the method: as §1, §2
A further data set concerns REH. In words: MTT cell viability assay, REH. The format is cell-based, human. As to conditions: Homo sapiens, 48 hrs. As to the method: as §1, §2
The test system of data set [7] is MIAPaCa-2. In words: MTT cell viability assay, MIAPaCa-2. As to conditions: Homo sapiens, MIA PaCa-2; MIAPaCa-2, 48 hrs. Format: cell-based, human. As to the method: as §1, §2
Another data set has as its system AsPC1. Description: MTT cell viability assay, AsPC1. Format: cell-based, human. As to conditions: Homo sapiens; AsPC1, 48 hrs. As to the method:
as §1, §2

Another data set relates to Molt-4. In words: MTT cell viability assay, Molt-4. As to conditions: Homo sapiens; Molt-4, 48 hrs. The format is cell-based, human. As to the method:
as §1, §2

“Also recorded” adds a separate entry of the source. Bounds are passed on as bounds.

Protocol for ME180: as §3

The term inhibition denotes the change of the read-out against control, counted positive when it falls. A higher inhibition goes with a response far below the control. A word on the IC50: it is the point on the concentration scale where inhibition reaches its midpoint. The low end stands for greater potency in that assay, the high end for weaker potency in that assay. Turning to `CC(C)=CCCC1(C)C=Cc2c(c(C)cc3c2[nH]c2cc(O)ccc23)O1` (centres unmarked) [Mahanine, mahanine], the “apoptosis (7-AAD+ve cells)” value is 80.5% in the data set with ME180 and 97.13% in the data set with SiHa [2]. The compound further displayed an inhibition at 50 µM in data set [1] (PBMC, mahanine at 50 μM, normal rat tissue cells, Vero and WI-38) of 15 to 20%. The “sensitivity of normal cells” value in [1] (heart, liver, muscle and PBMC, in vitro) is reported as “less sensitive”. Further, the IC50 with Panc1 was 16.5 ± 0.2 µM; with U87MGEGFRvIII, around 14 µM; with A172, 11.6 ± 1 µM; in the data set with K562, 13 ± 1.1 µM; in the data set on HCT116, 13.5 ± 0.8 µM; in the data set on SiHa [6], 14.5 µM. For the same compound, the concentration for half-maximal inhibition (IC50) in the data set on WI-38 (Homo sapiens, WI-38 normal cell line, 48 hrs) was above 65 µM; in the data set with SW480, 16 ± 0.3 µM; with REH, 11.6 ± 0.7 µM; with MIAPaCa-2 [7] it was 13.9 µM; in the data set with AsPC1, 17.2 ± 0.7 µM; in the data set with Molt-4 it was 10.7 ± 0.6 µM. Also, the “EGF-driven MIAPaCa-2 migration, % of controls” value in the data set with MIAPaCa-2 [3] (~0.6×IC50 (10 μM)) was 48.6 % of controls. Further, the “EGF-driven MIAPaCa-2 migration” value in the data set with MIAPaCa-2 [3] (~1×IC50, 15 μM) is reported as “nearly complete inhibition”. Further, in data set [4], the “orthotopic pancreatic tumour growth” value is “tumour growth inhibition”. In the data set on MIAPaCa-2 [5], the “wound closure / migratory cells” value is listed as below 5%. Besides, in “Storage stability” (dissolved in ethanol, −20° C.), the stable storage time is above 6 months. In addition, the “stability at room temperature” value in the data set “Storage stability” (purified compound) was “stable in room temperature”. Further, the “sensitivity of WI-38 cells” value in the data set with WI-38 (normal human lung fibroblast cells, in vitro) is “less sensitive; also recorded: minimum sensitivity”.
